Measurements reported in article PMC3472974, “The Bite of the Honeybee: 2-Heptanone Secreted from Honeybee Mandibles during a Bite Acts as a Local Anaesthetic in Insects and Mammals” (PLoS ONE, 2012).
Converted amounts (≈) assume the structure as drawn. Marks after values point to notes of the source that are not given here.

Key:
[1] = system: isolated rat sciatic nerve; test: tissue or blood; details: for IT50: unit not given in Table 3, seconds per Table 2
From the text: The ex vivo studies used both male and female rats weighing between 230 and 250 g. Animals were sacrificed using light anaesthesia with CO2 and cervical dislocation. The sciatic nerve of the rat, consisting of 27,000 sciatic nerve fibres, was isolated in a three-chamber recording bath (Fig. 5b). The sciatic nerves were dissected from the spinal cord to the knee, immersed in oxygenated (O2, 100%) saline solution and cleaned. The composition of the saline was (in mmoles/L): 136 NaCl, 11 glucose, 4.7 KCl, 2.4 CaCl2, 1.1 MgCl2, 1 NaHCO3, 10 HEPES, pH = 7.2). All experiments were performed at a constant temperature, 26.0±1.0°C. […] The nerve was mounted in a three-chambered recording bath made of Plexiglas, which is described elsewhere, [30]. The recording bath consisted of the recording (R in Fig. 5b), perfusion (P) and stimulating (S) chambers, each with a volume of 12 mL. The nCAP (Fig. 5a) was generated by stimulating (1 Hz) the part of the nerve in the stimulating chamber and was recorded in the recording chamber every second using standard electrophysiological methods. The nCAP was monitored throughout the experiment as an indication of the vitality of the nerve fibres in the recording bath. […] Immediately after the nCAP was eliminated, the saline+compound was removed and the nerve was washed out. Then, recovery of the nCAP in normal stagnant saline was monitored for 24 h. It is worth noting that the recording bath is designed in such a way that the chambers with the saline and 2-H (the nerves and the recording electrodes) was shielded from the air by using the cover (c in Fig. 5b) to avoid evaporation of the volatile 2-H. The saline with 2-H was added through a small diameter opening on the cover.
For further data analysis, the amplitude of the nCAPs, estimated from baseline to peak (Fig. 5), were measured at a specific time (every 1.0 s, 1.0 min or 1.0 h) and were expressed as a percentage of the amplitude of the nCAP at t = 0 (which was considered to be 100%). In the neuropharmacological experiments, time t = 0 was considered the time before application of the compound under investigation. […] The data were fitted in the program GraphPad Prism 5.0 using a one-phase exponential decay equation for the IC50. Data were analyzed by one-way ANOVA and Bonferroni’s post hoc tests, when required. Significance was determined using Students t-test or ANOVA as appropriate (p<0.05).

wax moth larvae (WML) = test: Locomotory pattern of tethered wax moth larvae after injection; assay type: in vivo, Galleria mellonella; details: large WML
From the text: To monitor the constant locomotory pattern of WML, the probe of a force-displacement transducer (FT-03C, Grass Instrument Company, USA), attached to a micromanipulator, was hooked onto the tail of the WML, while the head was carefully pinned to a wax substrate, [14]. The electrical signal generated by the rhythmic force produced during locomotion was amplified and fed to a computer through a data acquisition card interface (Keithley KPCI 3102, Keithley Instruments, Cleveland, OH, USA). Software designed using the facilities of Labview (Labview 5.1, National Instruments USA) permitted analysis of the recorded data.

hNav1.6 channels = target: T1, hNav1.6 channels (Homo sapiens, UniProt Q9UQD0); test: Patch-clamp (PatchXpress 7000A) on transfected CHO cells, hNav1.6; assay type: cell-based; details: CHO cells, n = 6, mean ± SEM, 2-H exposure limited to 3 min
T1 construct: expressed in transfected cells; host or cells: CHO-K1 (ATCC CCL-61)
T1 sequence (Q9UQD0 whole entry): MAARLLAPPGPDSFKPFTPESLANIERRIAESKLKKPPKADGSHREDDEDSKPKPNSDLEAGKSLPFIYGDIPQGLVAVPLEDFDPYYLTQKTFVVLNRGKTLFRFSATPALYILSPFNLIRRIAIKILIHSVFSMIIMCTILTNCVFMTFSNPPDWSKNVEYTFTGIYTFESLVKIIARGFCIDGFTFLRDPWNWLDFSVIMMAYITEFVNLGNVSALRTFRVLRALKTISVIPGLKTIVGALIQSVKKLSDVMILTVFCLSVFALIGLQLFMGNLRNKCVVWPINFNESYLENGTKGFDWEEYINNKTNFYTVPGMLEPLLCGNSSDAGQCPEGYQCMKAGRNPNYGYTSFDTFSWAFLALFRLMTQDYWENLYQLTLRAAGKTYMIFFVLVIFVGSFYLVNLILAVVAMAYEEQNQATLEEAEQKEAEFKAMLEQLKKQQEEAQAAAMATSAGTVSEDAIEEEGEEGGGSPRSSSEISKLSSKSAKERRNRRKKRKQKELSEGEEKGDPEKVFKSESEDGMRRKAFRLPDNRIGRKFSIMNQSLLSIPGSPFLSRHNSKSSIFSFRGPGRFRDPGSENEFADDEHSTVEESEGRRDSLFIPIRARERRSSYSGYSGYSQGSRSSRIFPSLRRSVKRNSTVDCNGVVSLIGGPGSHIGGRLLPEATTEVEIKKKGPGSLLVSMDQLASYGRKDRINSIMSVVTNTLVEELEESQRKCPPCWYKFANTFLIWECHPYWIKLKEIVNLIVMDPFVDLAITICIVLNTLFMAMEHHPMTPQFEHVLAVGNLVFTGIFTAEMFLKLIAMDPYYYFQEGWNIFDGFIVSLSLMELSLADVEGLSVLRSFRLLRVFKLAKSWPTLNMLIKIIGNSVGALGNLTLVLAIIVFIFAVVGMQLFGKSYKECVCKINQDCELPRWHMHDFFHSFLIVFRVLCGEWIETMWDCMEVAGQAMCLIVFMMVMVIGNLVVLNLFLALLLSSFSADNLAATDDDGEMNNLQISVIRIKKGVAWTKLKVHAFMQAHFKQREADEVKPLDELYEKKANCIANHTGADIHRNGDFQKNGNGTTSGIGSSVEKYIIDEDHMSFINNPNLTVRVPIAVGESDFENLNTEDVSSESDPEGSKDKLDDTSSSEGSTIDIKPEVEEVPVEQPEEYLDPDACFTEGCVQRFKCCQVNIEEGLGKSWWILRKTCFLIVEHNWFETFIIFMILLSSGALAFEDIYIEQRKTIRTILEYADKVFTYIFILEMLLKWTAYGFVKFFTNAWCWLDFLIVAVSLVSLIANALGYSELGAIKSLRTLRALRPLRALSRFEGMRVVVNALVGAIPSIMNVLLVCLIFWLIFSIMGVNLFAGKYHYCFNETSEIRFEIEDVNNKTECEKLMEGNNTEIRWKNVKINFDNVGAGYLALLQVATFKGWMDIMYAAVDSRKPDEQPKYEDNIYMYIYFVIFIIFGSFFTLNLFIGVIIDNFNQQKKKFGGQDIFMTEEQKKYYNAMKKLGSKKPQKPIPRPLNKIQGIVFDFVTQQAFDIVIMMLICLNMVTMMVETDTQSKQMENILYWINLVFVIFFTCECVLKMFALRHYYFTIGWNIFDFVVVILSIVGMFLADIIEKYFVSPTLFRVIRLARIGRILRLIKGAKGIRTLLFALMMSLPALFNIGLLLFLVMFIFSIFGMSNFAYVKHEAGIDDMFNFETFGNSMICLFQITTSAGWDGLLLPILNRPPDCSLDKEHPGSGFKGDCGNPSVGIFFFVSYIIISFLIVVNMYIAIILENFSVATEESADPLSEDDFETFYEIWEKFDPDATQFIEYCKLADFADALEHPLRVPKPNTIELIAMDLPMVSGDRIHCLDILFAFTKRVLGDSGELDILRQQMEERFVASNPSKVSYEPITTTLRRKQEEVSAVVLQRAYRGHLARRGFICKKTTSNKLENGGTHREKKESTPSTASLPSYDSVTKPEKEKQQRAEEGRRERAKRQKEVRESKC
From the text: To test whether 2-H can act by blocking VGNaCs, the PatchXpress 7000A was used. Mammalian CHO (Chinese hamster ovary) transfected with ion hNav1.2 and hNav1.6 channels cDNAs (SCN2A and SCN8A genes) were exposed to 2-H under both tonic and phasic conditions. The mammalian CHO-K1 epithelial embryonic cell line (ATCC number CCL-61) from Cricetulus griseus was obtained from ATCC, Manassas, VA. CHO-K1 cells were transfected with either hNav1.2 or hNav1.6 channel cDNA (SCN2A and SCN8A genes, respectively) and were exposed to 2-H under both tonic and phasic conditions.
The effects of 2-H were evaluated on hNav1.2 at 0.73, 1.46, 2.19, and 2.92 mg/mL and on hNav1.6 channels at 0.1, 0.36, 0.73, and 1.46 mg/mL, with each concentration tested in at least six cells (n = 6). Cells were exposed to each concentration of 2-H and measurements of the inward current were obtained within the first 3 min of exposure. […] Since the PatchXpress has open cell chambers where the testing occurs, there is no way to hermetically seal the experiment.
Based on this analysis, we estimated the IC50.

rat sciatic nerve = details: 80 mM, rat sciatic nerve in vitro; cited from earlier work
[2] = Table 3, 3.41 mg/mL, unit not given in Table 3, s

## CCCCC(C)=O [2-hexanone]
[1]; [2]
  IT0: 401.00 ± 33.20 s
[1]; Table 3, 3.41 mg/mL
  IT50: 74.42 ± 0.79 s

## CCCCCCC(C)=O [2-octanone]
[1]; [2]
  IT0: 555.00 ± 75.00 s
[1]; Table 3, 3.41 mg/mL
  IT50: 81.45 ± 1.58 s

## CCCC(C)=O [2-pentanone]
[1]; 3.41 mg/mL
  IT0: greater than 24 h
[1]; [2]
  IT0: No measurable
[1]; Table 3, 3.41 mg/mL
  IT50: 390.60 ± 0.10 s

## CCCCC(=O)CC [3-heptanone]
[1]; [2]
  IT0: 258.00±11.47^b seconds
[1]; Table 3, 3.41 mg/mL
  IT50: 40.82 ± 1.67 s

## CCCCCC(=O)CC [3-octanone]
[1]; [2]
  IT0: 722.50 ± 95.66 s
[1]; Table 3, 3.41 mg/mL
  IT50: 117.10 ± 0.53 s

## CCC(=O)CC [3-pentanone]
[1]; [2]
  IT0: 765.00 ± 86.60 s
[1]; Table 3, 3.41 mg/mL
  IT50: 230.30 ± 1.29 s

## CCCC(=O)CCC [4-heptanone]
[1]; [2]
  IT0: 283.57±16.89^b seconds
[1]; Table 3, 3.41 mg/mL
  IT50: 45.24 ± 0.44 s

## CCN(CC)CC(=O)Nc1c(C)cccc1C [lidocaine]
Wax moth larvae (WML); 0.81 mg injected, n = 5
  time to full recovery of locomotory pattern: 6.42 h
Wax moth larvae (WML); 1.63 mg injected, 12 cases
  effect of injection on large WML: lethal effect
hNav1.6 channels; hNav1.6 IC50, Phasic Experiment
  IC50: 299 µM
hNav1.6 channels; hNav1.6 IC50, Tonic Experiment
  IC50: 1240 µM
[1]; 1.41 mg/mL
  IT0 (time required for 100% inhibition of the nCAP): 320.3 ± 14.96 s
  IT50 (time to inhibit nCAP amplitude to 50% of control): 32.23 ± 3.16 s
[1]; 2.28 mg/mL
  IT0 (time required for 100% inhibition of the nCAP): 186.8 ± 8.07 s
  IT50 (time to inhibit nCAP amplitude to 50% of control): 30.9 ± 0.22 s
[1]; 3.41 mg/mL
  IT0 (time required for 100% inhibition of the nCAP): 147.50 ± 9.96 s
  IT50 (time to inhibit nCAP amplitude to 50% of control): 27.11 ± 3.16 s
[1]; 10 mg/mL
  IT0 (time required for 100% inhibition of the nCAP): 101.3 ± 2.16 s
  IT50 (time to inhibit nCAP amplitude to 50% of control): 12.0 ± 0.95 s
[1]; Rattus norvegicus, read-out: IC50 from concentration-response curves of the IT0 values
  IC50: 337 µg/mL (≈ 1440 µM)
[1]; after elimination of nCAP, remained at this level for at least 24 h, n = 8
  recovery of nCAP amplitude after wash with normal saline: 95.5%
Rat sciatic nerve
  effect on axonal membrane: disrupts the axonal membrane
